Biological target: T1, Human HEX B (Homo sapiens, UniProt P07686)
T1 construct: Hex B protein (isolated from human placenta) was purchased from Sigma Co; purchased Sigma Co; host or cells: human placenta
Test: Michaelis-Menten/Lineweaver-Burk kinetic inhibition of Hex B with 4MU-NAG substrate
Format: biochemical
Procedure: Hex B protein (isolated from human placenta) was purchased from Sigma Co.
Both O-GlcNAcase and Hex B were subjected to Michaelis-Menton kinetic analysis to determine the kinetics of their enzymatic activity in the presence of absence of Compounds 1-5 and Compound ix, using 4-methylumbelliferyl-N-acetyl-β-D-glucosaminide (4MU-NAG; purchased from Sigma Co.) as the substrate (a fluorogenic substrate). The reaction conditions for each enzyme are shown below:
Hex B: reaction mixture (0.1 nM Hex B (200 μL), 50 mM NaH2PO4, 100 mM NaCl, 0.1% BSA, 0.05-1.5 mM substrate, pH 6.5) was incubated at 30° C. for 25 minutes. The reaction was terminated by addition of a 3× quenching buffer (200 mM sodium glycine buffer, pH 10.8). The enzyme activity was determined as described above.
To determine the effects of Compounds 1-5 and Compound ix on the kinetics of both enzymes, the enzyme reactions described above were performed in the presence of each compound at different concentrations. In these reactions, the substrate concentrations were three to five fold of the concentration used for determining KM (absent compounds) and the ratio between the enzyme and the compound was 0.1-0.5 nM to 0.3 nM-200 uM. The data thus obtained were analyzed by the Lineweaver-Burk plot. The K1 values were determined by the double reciprocal plot (1/V vs. 1/[S]). More specifically, the Km values for each enzyme in the presence of one of the test compounds first determined and these values were further plotted in view of the concentrations of the compound. K1 was determined by calculating the negative value of the resulting x-intercept. The selectivity of each compound was calculated by the formula: K1 O-GlcNAcase/K1 Hex B.

T1 sequence (P07686 315-556 limits assumed): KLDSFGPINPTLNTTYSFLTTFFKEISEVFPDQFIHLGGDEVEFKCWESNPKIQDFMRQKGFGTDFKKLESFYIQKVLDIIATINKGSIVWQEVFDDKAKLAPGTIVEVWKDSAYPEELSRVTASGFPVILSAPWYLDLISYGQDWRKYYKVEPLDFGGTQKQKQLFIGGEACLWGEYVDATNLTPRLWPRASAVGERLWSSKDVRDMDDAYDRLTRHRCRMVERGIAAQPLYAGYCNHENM
T1 sequence (P07686 122-311 limits assumed): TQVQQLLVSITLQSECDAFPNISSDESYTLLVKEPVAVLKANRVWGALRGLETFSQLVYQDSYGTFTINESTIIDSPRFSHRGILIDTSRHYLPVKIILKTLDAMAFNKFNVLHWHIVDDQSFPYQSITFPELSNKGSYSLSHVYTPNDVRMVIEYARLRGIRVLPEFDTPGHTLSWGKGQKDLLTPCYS
T1 sequence (P07686 50-107 partner limits assumed): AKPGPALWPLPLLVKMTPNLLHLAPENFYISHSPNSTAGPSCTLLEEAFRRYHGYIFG

CC(=O)NC1CN(CCCCCCCNC(=O)CCCCC2SCC3NC(=O)NC32)C(CO)C(O)C1O (centres unmarked) [Compound 5]
Ki (Table 1): 26.7 ± 1.11 nM | Ki (Table 2): 26.7 ± 1.11 nM
